In ChEMBL document CHEMBL5724914, “Linking interpersonal differences in gut microbiota composition and drug biotransformation activity” (2024):

What was measured:
[1] = The drug is tested on Z-029 corresponding to rat gut metagenome with ENA study accession number: PRJEB37062 and ENA sample accession number: ERS12561828 for biotransformation under anaerobic condition. The drug concentrations were measured over 9 timepoints collected between 0 and 24 hours of incubation by liquid-chromatography-coupled mass spectrometry (LC–MS); details: 2 µM
[2] = The drug is tested on Z-025 corresponding to rabbit gut metagenome with ENA study accession number: PRJEB37062 and ENA sample accession number: ERS12561824 for biotransformation under anaerobic condition. The drug concentrations were measured over 9 timepoints collected between 0 and 24 hours of incubation by liquid-chromatography-coupled mass spectrometry (LC–MS); details: 2 µM
[3] = The drug is tested on Z-022 corresponding to mouse gut metagenome with ENA study accession number: PRJEB37062 and ENA sample accession number: ERS12561821 for biotransformation under anaerobic condition. The drug concentrations were measured over 9 timepoints collected between 0 and 24 hours of incubation by liquid-chromatography-coupled mass spectrometry (LC–MS); details: 2 µM
[4] = The drug is tested on Z-018 corresponding to pig gut metagenome with ENA study accession number: PRJEB37062 and ENA sample accession number: ERS12561817 for biotransformation under anaerobic condition. The drug concentrations were measured over 9 timepoints collected between 0 and 24 hours of incubation by liquid-chromatography-coupled mass spectrometry (LC–MS); details: 2 µM
[5] = The drug is tested on Z-013 corresponding to rabbit gut metagenome with ENA study accession number: PRJEB37062 and ENA sample accession number: ERS12561813 for biotransformation under anaerobic condition. The drug concentrations were measured over 9 timepoints collected between 0 and 24 hours of incubation by liquid-chromatography-coupled mass spectrometry (LC–MS); details: 2 µM
[6] = The drug is tested on Z-012 corresponding to metagenome with ENA study accession number: PRJEB37062 and ENA sample accession number: ERS12561812 for biotransformation under anaerobic condition. The drug concentrations were measured over 9 timepoints collected between 0 and 24 hours of incubation by liquid-chromatography-coupled mass spectrometry (LC–MS); details: 2 µM
[7] = The drug is tested on Z-011 corresponding to mouse gut metagenome with ENA study accession number: PRJEB37062 and ENA sample accession number: ERS12561811 for biotransformation under anaerobic condition. The drug concentrations were measured over 9 timepoints collected between 0 and 24 hours of incubation by liquid-chromatography-coupled mass spectrometry (LC–MS); details: 2 µM
[8] = The drug is tested on Z-001 corresponding to mouse gut metagenome with ENA study accession number: PRJEB37062 and ENA sample accession number: ERS12561801 for biotransformation under anaerobic condition. The drug concentrations were measured over 9 timepoints collected between 0 and 24 hours of incubation by liquid-chromatography-coupled mass spectrometry (LC–MS); details: 2 µM
[9] = The drug is tested on WLS-310 corresponding to human gut metagenome with ENA study accession number: PRJEB37062 and ENA sample accession number: ERS12561785 for biotransformation under anaerobic condition. The drug concentrations were measured over 9 timepoints collected between 0 and 24 hours of incubation by liquid-chromatography-coupled mass spectrometry (LC–MS); details: 2 µM
[10] = The drug is tested on WLS-077 corresponding to human gut metagenome with ENA study accession number: PRJEB37062 and ENA sample accession number: ERS12561750 for biotransformation under anaerobic condition. The drug concentrations were measured over 9 timepoints collected between 0 and 24 hours of incubation by liquid-chromatography-coupled mass spectrometry (LC–MS); details: 2 µM
[11] = human gut metagenome, 24 h, 2 µM
[12] = human gut metagenome, 24 h, 2 µM; remark: listed apart in the source
[13] = human gut metagenome, 24 h, 2 µM; remark: listed apart in the source
[14] = human gut metagenome, 24 h, 2 µM; remark: listed apart in the source
[15] = human gut metagenome, 24 h, 2 µM; remark: listed apart in the source
[16] = human gut metagenome, 24 h, 2 µM; remark: listed apart in the source
[17] = human gut metagenome, 24 h, 2 µM; remark: listed apart in the source
[18] = human gut metagenome, 24 h, 2 µM; remark: listed apart in the source
[19] = human gut metagenome, 24 h, 2 µM; remark: listed apart in the source
[20] = human gut metagenome, 24 h, 2 µM; remark: listed apart in the source
Note: call rule not given here.

Row | SMILES | Bacterial Biotransformation [1] | Bacterial Biotransformation [2] | Bacterial Biotransformation [3] | Bacterial Biotransformation [4] | Bacterial Biotransformation [5] | Bacterial Biotransformation [6] | Bacterial Biotransformation [7] | Bacterial Biotransformation [8] | Bacterial Biotransformation [9] | Bacterial Biotransformation [10] | Bacterial Biotransformation [11] | Bacterial Biotransformation [12] | Bacterial Biotransformation [13] | Bacterial Biotransformation [14] | Bacterial Biotransformation [15] | Bacterial Biotransformation [16] | Bacterial Biotransformation [17] | Bacterial Biotransformation [18] | Bacterial Biotransformation [19] | Bacterial Biotransformation [20]
1 | O=C1CN2Cc3c(ccc(Cl)c3Cl)N=C2N1 [ANAGRELIDE] | Compound NOT metabolized | Compound NOT metabolized | Compound metabolized | Compound NOT metabolized | Compound NOT metabolized | Compound NOT metabolized | Compound NOT metabolized | Compound NOT metabolized | Compound metabolized | Compound NOT metabolized | Compound NOT metabolized | Compound metabolized | Compound metabolized | Compound NOT metabolized | Compound NOT metabolized | Compound NOT metabolized | Compound NOT metabolized | Compound metabolized | Compound NOT metabolized | Compound NOT metabolized
2 | CN1CCN2c3ccccc3Cc3ccccc3C2C1 (stereo not given) [MIANSERIN] | Compound NOT metabolized | Compound metabolized | Compound metabolized | Compound metabolized | Compound NOT metabolized | Compound NOT metabolized | Compound metabolized | Compound NOT metabolized | Compound NOT metabolized | Compound NOT metabolized | Compound metabolized | Compound NOT metabolized | Compound NOT metabolized | Compound NOT metabolized | Compound NOT metabolized | Compound NOT metabolized | Compound NOT metabolized | Compound NOT metabolized | Compound NOT metabolized | Compound NOT metabolized
3 | CC12CC3CC(C)(C1)CC(N)(C3)C2 [MEMANTINE] | Compound NOT metabolized | Compound NOT metabolized | Compound metabolized | Compound NOT metabolized | Compound NOT metabolized | Compound NOT metabolized | Compound NOT metabolized | Compound NOT metabolized | Compound NOT metabolized | Compound NOT metabolized | Compound NOT metabolized | Compound NOT metabolized | Compound NOT metabolized | Compound NOT metabolized | Compound NOT metabolized | Compound NOT metabolized | Compound NOT metabolized | Compound NOT metabolized | Compound NOT metabolized | Compound NOT metabolized
4 | CC(N)C12CC3CC(CC(C3)C1)C2 (stereo not given) [RIMANTADINE] | Compound NOT metabolized | Compound NOT metabolized | Compound metabolized | Compound NOT metabolized | Compound NOT metabolized | Compound NOT metabolized | Compound NOT metabolized | Compound NOT metabolized | Compound NOT metabolized | Compound NOT metabolized | Compound NOT metabolized | Compound NOT metabolized | Compound NOT metabolized | Compound NOT metabolized | Compound NOT metabolized | Compound NOT metabolized | Compound NOT metabolized | Compound NOT metabolized | Compound NOT metabolized | Compound NOT metabolized
